Data reported in US20040162263A1, “Pharmaceutical formulations targeting specific regions of the gastrointesinal tract” (priority 2002, published 2004).

Legend:
L1210 leukemic mice = conditions: cited from earlier work
[1] = test system: fetal hemoglobin levels (Hb F); conditions: orally 8 mg/kg, repeatedly phlebotomized baboon; cited from earlier work
[2] = Physico-chemical properties of pentostatin (solubility, stability); assay type: physicochemical
in vivo = conditions: dog
Method: Pentostatin was administered to IVAP beagle dogs (n=3) at 0.2 mg/kg via intravenous, oral and through previously implanted intestinal ports (jejunum, ileum and colon). Extravascular administration of pentostatin was done in saline water for infusion or in a pH=7 phosphate buffer solution to control the intestinal pH. Blood samples were taken systemic and through a port in the portal vein, plasma separated and kept frozen at −20° C. until analysis.
Six adult male beagle dogs (obtained from Summit Ridge Farms, Susquehanna, Pa.; between the ages of 1 and 5 years and weighed between 9 and 16 kg) were prepared with indwelling catheters in the Upper and Lower Small Intestines (USI and LSI), Colon (IC) and Portal Vein (PV) and were dosed with pentostatin at 0.2 mg/kg. The drug formulation was delivered either orally, intraveneously or, in most cases, through the indwelling ports and blood samples were drawn to determine the pharmacokinetics of each permutation. Systemic blood samples were collected from acutely placed IV catheters in the brachial vein, while PV samples were collected through the indwelling port and catheter. All blood samples were spun down, the plasma decanted, frozen and stored at −70 deg Celsius before subject to analysis.
The IVAP dog is prepared with indwelling catheters attached to subcutaneous ports (Titanium Vascular Access Portsg from Access Technologies in Skokie, Ill.) for delivery of drug formulations directly to various parts of the Gastrointestinal Tract. […] In addition, collecting blood samples directly from the portal vein during parenteral as well as oral and intestinal delivery can be combined with direct portal delivery studies to tweeze apart the first pass effects of both liver and intestinal cell enzymatic degradation effects on the drug being tested. Next, delivery of various formulations under different conditions can help in the development of effective oral delivery systems. Finally, delivery of absorption enhancers at various intervals, prior to the delivery of the drug, can be used to determine the recovery time of intestinal wall integrity following dosing with a particular formulation.
IVAP dogs are fitted with three intestinal catheters, in addition to a portal vein catheter. Following induction of general anesthesia, the animal is placed in a supine position, scrubbed and prepped with betadine solution and draped under sterile conditions. A vertical midline incision is made through the skin and the abdominal cavity is entered. A 5F Heparin Coated CBAS® tubing, is inserted into the portal vein and secured with a purse string of 7-0 prolene suture. A small square of Surgicel® is placed over the insertion site and the fascia is closed over it to prevent leakage or dislodging of the tubing. The Upper Small Intestine (USI) port tubing is inserted 10 cm distal to the ligament of Treitz. The small bowel is then measured from the pyloric sphincter to the ileocecal valve and the Lower Small Intestine (LSI) port tubing is inserted one third of the way back from the ileocecal valve. The colon tubing is inserted 10 cm distal to the ileocecal valve (Colon). 7F Sylastic® tubing is used for each intestinal catheter. […] The tubings are secured with a silk “purse-string” suture and the modified Witzel Tunnel technique. After placement of the tubes, the bowel is secured to the abdominal wall and the proximal ends of the tubings are tunneled out of the abdominal cavity and into a subcutaneous pocket on the caudal aspect of the right chest, along with the PV catheter. The abdominal incision is closed in two layers. The Linea Alba is approximated with 0 Vicryl and the skin is closed with 2-0 Vicryl.
In case of IV administration, the drug is dissolved in normal sterile saline to a concentration of 1 mg/ml and is passed through a […] sterilizing filter prior to administration to the brachial vein.

Row | Compound | activity parenteral versus oral (L1210 leukemic mice) | elevation in the fetal hemoglobin levels (Hb F) [1] | solubility in ethanol and methanol [2] | stability in aqueous solution ([2]; 1 mg/ml) | solid stability at high temperature and humidity ([2]; 37° C., 75% RH) | solubility in water ([2]; at various pHs) | hygroscopicity ([2]; crystalline form) | solid stable ([2]; up to temperatures of 45° C.) | AUC2/AUC1 (portal vein) (in vivo; po) | Relative bioavailability in reference to oral (in vivo; male, beagle) [%] | Ratio Treat2/Treat1 of systemic bioavailability (in vivo; male, beagle, po) | bioavailability % change, AVERAGE (in vivo; male, beagle, po) [%] | decrease in the systemic pentostatin bioavailability (in vivo; male, beagle, po) [%] | Mean systemic AUC0-inf (in vivo; male, beagle, po, 0.2 mg/kg) | bioavailability (in vivo; male, beagle, po, 0.2 mg/kg, Individual bioavailability % change) [%] | AUC(0-inf) (in vivo; male, beagle, po, 0.2 mg/kg, Mean systemic AUC0-inf) [ng·h/mL] | bioavailability (in vivo; male, beagle, po, 0.2 mg/kg, Relative bioavailability calculated in portal vein) [%] | bioavailability (in vivo; male, beagle, po, 0.2 mg/kg, Relative bioavailability in reference to oral) [%] | bioavailability (in vivo; male, beagle, po, 0.2 mg/kg, pH 7, systemic bioavailability (F), mean) [%] | bioavailability (in vivo; male, beagle, po, 0.2 mg/kg, systemic bioavailability (F), mean) [%]
1 | Nc1ncn([C@@H]2O[C@H](CO)[C@@H](O)[C@H]2O)c(=O)n1 [5-azacytidine] | more active when administered parenterally than orally | no elevation |  |  |  |  |  |  |  |  |  |  |  |  |  |  |  |  |  | 
2 | OC[C@H]1O[C@@H](n2cnc3c2NC=NC[C@H]3O)C[C@@H]1O [pentostatin, 2′-deoxycoformycin] |  |  | slightly soluble | most stable at pH 7 or above and degrade quickly at pHs lower than 4 | loses the potency | freely soluble | not hygroscopic | at least 12 months | 1.50 | 620 | 0.51 | −26 | 50 | 10,425 ± 6,652 (64) ng × min/ml | 5 | 340 | 100 | 100 | 14.3 | 28
